According to patent US20100035943A1, “Oxa-and thiadiazoles and their use as metalloproteinase inhibitors” (VERNALIS (OXFORD) LTD, priority 2002, published 2010):

Key:
Assay type in all cases: biochemical
92 kDa gelatinase (MMP9) = 92 kDa gelatinase (MMP9) (Homo sapiens, UniProt P14780); experiment: MMP9 enzyme inhibition assay (fluorogenic peptide substrate McaPLGLDpaAR); conditions: recombinant human 92 kDa gelatinase, 37° C., 2 hours
Method: (§1) Compounds were tested for inhibitory activity against 92 kDa gelatinase (MMP9) in an assay using a coumarin-labelled peptide substrate, (7-methoxycoumarin-4-yl)acetyl-Pro-Leu-Gly-Leu-(3-[2,4-dinitrophenyl]-L-2,3-diaminopropionyl)-Ala-Arg-NH2 (McaPLGLDpaAR) (Knight et al, FEBS Lett. 1992; 263-266).
(§2) Stock solutions were made up as follows: • Assay Buffer: 100 mM Tris-HCl pH 7.6 containing 100 mM NaCl, 10 mM CaCl2, and 0.05% Brij 35 • Substrate: 0.4 mM McaPLGLDpaAR (from Bachem) (0.437 mg/ml) stock solution in 100% DMSO (stored at −20° C.). Dilute to 8 μM in assay buffer. • Enzyme: Recombinant human 92 kDa gelatinase (MMP-9; APMA (4-aminophenyl • mercuric acetate)—activated if necessary) appropriately diluted in assay buffer.
(§3) Test Compounds were prepared initially as 10 mM compound solution in 100% DMSO, diluted to 1 mM in 100% DMSO, then serially diluted 3-fold in 100% DMSO across columns 1-10 of a 96-well microtitre plate Assay concentration range, 100 μM (column 1) to 5.1 nM (column 10)
(§4) The assay was performed in a total volume of 100 μl per well in 96-well microtitre plates. Activated enzyme (20 μl) was added to the wells followed by 20 μl of assay buffer. Appropriate concentrations of test compounds dissolved in 10 μl of DMSO were then added followed by 50 μl of McaPLGLDpaAR (8 μM, prepared by dilution of DMSO stock in assay buffer). For each assay ten concentrations of test compound were examined in duplicate. Control wells lack either enzyme or test compound. The reactions were incubated at 37° C. for 2 hours. The fluorescence at 405 nm was measured immediately with an SLT Fluostar fluorometer (SLT Labinstruments GmbH, Grödig, Austria) using 320 nm excitation, without stopping the reaction.
(§5) The effect of the test compound was determined from the dose response curve generated by the 10 duplicate concentrations of inhibitor. The IC50 (the concentration of compound required to give a 50% decrease in enzyme activity) was obtained by fitting data to the equation, Y=a+((b−a)/(1+(c/X)^d)). (Y=inhibition achieved for a particular dose; X=the dose in nM; a=minimum y or zero % inhibition; b=maximum y or 100% inhibition; c=is the IC50; d=is the slope). The result was rounded to one significant figure.

metalloelastase (MMP12) = metalloelastase (MMP12) (Homo sapiens, UniProt P39900); experiment: MMP12 enzyme inhibition assay (fluorogenic peptide substrate McaPLGLDpaAR); conditions: protocol as for MMP9 assay
Method: as §2, §3, §4, §5
as §1, with “metalloelastase (MMP12)” for “92 kDa gelatinase (MMP9)”, “263-266). The protocol for this assay was as described for the MMP9 assay above.” for “263-266).”

collagenase (MMP1) = biological target: T1, collagenase (MMP1) (Homo sapiens, UniProt P03956); experiment: MMP1 enzyme inhibition assay (fluorogenic peptide substrate McaPLGLDpaAR); conditions: protocol as for MMP9 assay
T1 sequence (P03956 100-469): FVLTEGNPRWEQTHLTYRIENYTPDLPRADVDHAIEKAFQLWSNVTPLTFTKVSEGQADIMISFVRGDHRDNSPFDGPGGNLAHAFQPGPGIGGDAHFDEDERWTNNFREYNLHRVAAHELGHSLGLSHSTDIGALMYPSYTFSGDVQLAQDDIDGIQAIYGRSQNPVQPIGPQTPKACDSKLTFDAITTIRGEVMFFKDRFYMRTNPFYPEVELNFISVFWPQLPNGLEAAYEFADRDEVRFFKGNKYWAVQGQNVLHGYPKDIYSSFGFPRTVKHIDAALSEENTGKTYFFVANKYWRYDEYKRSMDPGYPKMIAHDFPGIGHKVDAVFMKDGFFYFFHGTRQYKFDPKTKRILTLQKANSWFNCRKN
Method: as §2, §3, §4, §5
as §1, with “• Compounds” for “Compounds”, “collagenase (MMP1)” for “92 kDa gelatinase (MMP9)”, “263-266). The protocol for this assay was as described for the MMP9 assay above.” for “263-266).”

Sequence of 92 kDa gelatinase (MMP9) (P14780 107-707 limits assumed): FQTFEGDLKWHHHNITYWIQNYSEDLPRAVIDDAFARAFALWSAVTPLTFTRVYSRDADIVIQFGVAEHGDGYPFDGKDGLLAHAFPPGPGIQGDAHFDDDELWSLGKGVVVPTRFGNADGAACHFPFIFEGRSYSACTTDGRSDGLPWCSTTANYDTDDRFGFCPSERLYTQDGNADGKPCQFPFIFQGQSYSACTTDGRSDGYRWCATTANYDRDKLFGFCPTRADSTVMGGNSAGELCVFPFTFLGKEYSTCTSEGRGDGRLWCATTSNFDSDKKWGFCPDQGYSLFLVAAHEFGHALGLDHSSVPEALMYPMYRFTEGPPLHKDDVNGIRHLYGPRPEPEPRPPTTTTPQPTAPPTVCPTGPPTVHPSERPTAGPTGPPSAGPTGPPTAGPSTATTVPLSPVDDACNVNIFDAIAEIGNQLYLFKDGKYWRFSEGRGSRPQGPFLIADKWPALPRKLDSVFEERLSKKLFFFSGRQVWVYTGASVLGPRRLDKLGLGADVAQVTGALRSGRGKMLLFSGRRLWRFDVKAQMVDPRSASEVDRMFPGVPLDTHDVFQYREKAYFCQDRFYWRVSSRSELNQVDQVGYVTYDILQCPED
Sequence of metalloelastase (MMP12) (P39900 106-470): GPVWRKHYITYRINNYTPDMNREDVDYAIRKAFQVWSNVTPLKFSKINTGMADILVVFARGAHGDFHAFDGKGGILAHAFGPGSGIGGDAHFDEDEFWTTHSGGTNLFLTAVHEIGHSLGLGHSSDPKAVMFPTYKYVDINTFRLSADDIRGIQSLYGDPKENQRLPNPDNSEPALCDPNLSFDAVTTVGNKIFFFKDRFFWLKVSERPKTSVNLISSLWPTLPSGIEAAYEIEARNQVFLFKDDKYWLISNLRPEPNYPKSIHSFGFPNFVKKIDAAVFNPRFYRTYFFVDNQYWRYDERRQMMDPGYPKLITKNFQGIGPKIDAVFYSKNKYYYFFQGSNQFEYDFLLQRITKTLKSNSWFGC

| Compound | IC50 (92 kDa gelatinase (MMP9)) [nM] | IC50 (metalloelastase (MMP12)) [nM] | IC50 (collagenase (MMP1)) [nM] |
| --- | --- | --- | --- |
| CC(C)C[C@@H](C(=O)N[C@H](c1noc(-c2ccccc2)n1)C(C)(C)C)[C@H](O)C(=O)NO [Example 1, 3R-[2,2-Dimethyl-1 S-(5-phenyl-[1,2,4]oxadiazol-3-yl)-propylcarbamoyl]-2S-hydroxy-5-methyl-Hexanohydroxamic Acid] | 100 to 1000 | < 100 | 100 to 1000 |
| CC(C)C[C@@H](C(=O)N[C@H](c1nc(-c2ccccc2)no1)C(C)(C)C)[C@H](O)C(=O)NO [Example 2, 3R-[2,2-Dimethyl-1S-(3-phenyl-[1,2,4]oxadiazol-5-yl)-propylcarbamoyl]-2S-hydroxy-5-methyl-hexanohydroxamic Acid] | 100 to 1000 | < 100 | 100 to 1000 |
| CCOc1ccc(CCC[C@@H](C(=O)N[C@H](c2noc(-c3cccs3)n2)C(C)(C)C)[C@H](O)C(=O)NO)cc1 [Example 3] | < 100 | < 100 | > 10000 |
| CC(C)C[C@@H](C(=O)N[C@H](c1noc(Cc2cccs2)n1)C(C)(C)C)[C@H](O)C(=O)NO [Example 7, 2S-Hydroxy-3R-[1S-(5-thiopen-2-ylmethyl-[1,2,4]oxadiazol-3-yl)-2,2-dimethyl-propylcarbamoyl]-5-methyl Hexanohydroxamic Acid] | 1000 to 10000 | 100 to 1000 | 1000 to 10000 |
| CC(C)C[C@@H](C(=O)N[C@H](c1noc(Cc2ccccc2)n1)C(C)(C)C)[C@H](O)C(=O)NO [Example 10, 2S-Hydroxy-3R-[1S-(5-benzyl-[1,2,4]oxadiazol-3-yl)-2,2-dimethyl-propylcarbamoyl]-5-methyl Hexanohydroxamic Acid] | 1000 to 10000 | < 100 | 1000 to 10000 |
| Cc1ccc(-c2nc([C@@H](NC(=O)[C@H](CC(C)C)[C@H](O)C(=O)NO)C(C)(C)C)no2)cc1 [Example 15, 2S-Hydroxy-3R-[1S-(5-p-tolyl-[1,2,4]oxadiazol-3-yl)-2,2-dimethyl-propylcarbamoyl]-5-methyl Hexanohydroxamic Acid] | 100 to 1000 | < 100 | 100 to 1000 |
| C=CC[C@H](C(=O)NO)[C@@H](CC(C)C)C(=O)N[C@@H](Cc1ccccc1)c1nc(C)no1 [Example 22, 2S-Allyl-5-methyl-3R-[2-phenyl-1S-(3-methyl-[1,2,4]oxadiazol-5-yl)-ethylcarbamoyl]-hexanohydroxamic Acid] | – | – | < 100 |
| CCCCCCCCCCCCCC[C@H](CC(=O)O)C(=O)N[C@H](c1nc(-c2ccccc2)no1)C(C)(C)C [Example 26, 3R-[2,2-Dimethyl-1S-(3-phenyl-[1,2,4]oxadiazol-5-yl)-propylcarbamoyl]-heptadecanoic Acid] | > 10000 | > 10000 | – |
| CCCCCCCCCCCCCCCC[C@H](CC(=O)O)C(=O)N[C@H](c1nc(-c2ccccc2)no1)C(C)(C)C [Example 27, 3R-[2,2-Dimethyl-1S-(3-phenyl-[1,2,4]oxadiazol-5-yl)-propylcarbamoyl]-nonadecanoic Acid] | > 10000 | > 10000 | – |
| CC(C)(C)[C@H](NC(=O)[C@H](CCCc1ccc(Cl)cc1)CC(=O)O)c1noc(-c2ccccc2)n1 [Example 28, 6-(4-Chloro-phenyl)-3R-[2,2-dimethyl-1S-(5-phenyl-[1,2,4]oxadiazol-3-yl)-propylcarbamoyl]-hexanoic Acid] | – | > 10000 | – |

Now from value to compound:

| IC50 (92 kDa gelatinase (MMP9)) [nM] | IC50 (metalloelastase (MMP12)) [nM] | IC50 (collagenase (MMP1)) [nM] | Compound |
| --- | --- | --- | --- |
| 100 to 1000 | < 100 | 100 to 1000 | CC(C)C[C@@H](C(=O)N[C@H](c1noc(C(C)C)n1)C(C)(C)C)[C@H](O)C(=O)NO [Example 4, 2S-Hydroxy-3R-[1S-(5-isopropyl-[1,2,4]oxadiazol-3-yl)-2,2-dimethyl-propylcarbamoyl]-5-methyl Hexanohydroxamic Acid] |
| 1000 to 10000 | < 100 | 100 to 1000 | CC(C)C[C@@H](C(=O)N[C@H](c1noc(CC2CCCC2)n1)C(C)(C)C)[C@H](O)C(=O)NO [Example 6, 2S-Hydroxy-3R-[1S-(5-cyclopentylmethyl-[1,2,4]oxadiazol-3-yl)-2,2-dimethyl-propylcarbamoyl]-5-methyl Hexanohydroxamic Acid] |
| 100 to 1000 | < 100 | 100 to 1000 | CCc1nc([C@@H](NC(=O)[C@H](CC(C)C)[C@H](O)C(=O)NO)C(C)(C)C)no1 [Example 8, 2S-Hydroxy-3R-[1S-(5-ethyl-[1,2,4]oxadiazol-3-yl)-2,2-dimethyl-propylcarbamoyl]-5-methyl Hexanohydroxamic Acid] |
| 1000 to 10000 | < 100 | 100 to 1000 | CC(C)C[C@@H](C(=O)N[C@H](c1noc(C2CCCC2)n1)C(C)(C)C)[C@H](O)C(=O)NO [Example 9, 2S-Hydroxy-3R-[1S-(5-cyclopentyl-[1,2,4]oxadiazol-3-yl)-2,2-dimethyl-propylcarbamoyl]-5-methyl Hexanohydroxamic Acid] |
| 1000 to 10000 | < 100 | 1000 to 10000 | CC(C)Cc1nc([C@@H](NC(=O)[C@H](CC(C)C)[C@H](O)C(=O)NO)C(C)(C)C)no1 [Example 11, 2S-Hydroxy-3R-[1S-(5-isobutyl-[1,2,4]oxadiazol-3-yl)-2,2-dimethyl-propylcarbamoyl]-5-methyl Hexanohydroxamic Acid] |
| 100 to 1000 | < 100 | 100 to 1000 | CC(C)C[C@@H](C(=O)N[C@H](c1noc(C(C)(C)C)n1)C(C)(C)C)[C@H](O)C(=O)NO [Example 12, 2S-Hydroxy-3R-[1S-(5-tert-butyl-[1,2,4]oxadiazol-3-yl)-2,2-dimethyl-propylcarbamoyl]-5-methyl Hexanohydroxamic Acid] |
| 1000 to 10000 | < 100 | 1000 to 10000 | CC(C)C[C@@H](C(=O)N[C@H](c1noc(CC(C)(C)C)n1)C(C)(C)C)[C@H](O)C(=O)NO [Example 14, 2S-Hydroxy-3R-[1S-(5-(2,2-dimethyl-propyl)-[1,2,4]oxadiazol-3-yl)-2,2-dimethyl-propylcarbamoyl]-5-methyl Hexanohydroxamic Acid] |
| 100 to 1000 | < 100 | 100 to 1000 | CC(C)C[C@@H](C(=O)N[C@H](c1noc(C2CC2)n1)C(C)(C)C)[C@H](O)C(=O)NO [Example 16, 2S-Hydroxy-3R-[1S-(5-cyclopropyl-[1,2,4]oxadiazol-3-yl)-2,2-dimethyl-propylcarbamoyl]-5-methyl Hexanohydroxamic Acid] |
| 1000 to 10000 | < 100 | 100 to 1000 | Cc1nc([C@@H](NC(=O)[C@H](CC(C)C)[C@H](O)C(=O)NO)C(C)(C)C)no1 [Example 17, 2S-Hydroxy-3R-[1S-(5-methyl-[1,2,4]oxadiazol-3-yl)-2,2-dimethyl-propylcarbamoyl]-5-methyl Hexanohydroxamic Acid] |
| 100 to 1000 | < 100 | 100 to 1000 | CC(C)C[C@@H](C(=O)N[C@H](c1nc(C(C)C)no1)C(C)(C)C)[C@H](O)C(=O)NO [Example 18, 2S-Hydroxy-3R-[1S-(3-isopropyl-[1,2,4]oxadiazol-3-yl)-2,2-dimethyl-propylcarbamoyl]-5-methyl Hexanohydroxamic Acid] |
